These results are taken from patent US20260376311A1, “Subject selection for 11B-HSD1 inhibitor treatment” (ACTINOGEN MEDICAL LIMITED, priority 2022, published 2026).

The conditions of data set [1]: comparison with Xanamem treatment effect; cited from earlier work.
The nature of data set [2]: Clinical Dementia Rating Scale-Sum of Boxes (CDR-SB), Phase II placebo-controlled study, Biomarker Extension Study. Format: in vivo, human. The following applies: 12 weeks. The method, then: (§1) A Phase II, Double-Blind, 12-Week, Randomised, Placebo-Controlled Study was conducted to Assess the Safety, Tolerability and Efficacy of Xanamem™ in Subjects with Mild Dementia due to Alzheimer's Disease (AD).
(§2) Study Design: This is a Phase II, randomized, multi-centre, double-blind, placebo-controlled, proof-of-concept study to assess the safety, tolerability and efficacy of oral Xanamem™ QD in adult subjects with mild dementia due to AD.
(§3) At the Baseline visit (Week 0), eligible subjects will be randomised on a 1:1 ratio to receive either 10 mg Xanamem™ administered orally, QD (treatment group) or matching placebo (placebo group). Subjects returned to the study site for the Interim visits (Week 4 and Week 8), EOT (Week 12) and Follow-up (4 weeks post last dose of study drug) visits, at which study assessments were performed.
(§4) Xanamem™ is formulated in green and cream-coloured size 3, Coni-Snap shaped gelatin capsules as an excipient blend at a dose of 10 mg (see Table 1). The dose of Xanamen™ will be 10 mg administered orally, QD.
The Washington University CDR is a global assessment instrument that yields global and SOB scores, with the global score regularly used in clinical and research settings to stage dementia severity. The CDR-SOB score has been considered a more detailed quantitative general index than the global score and provides more information than the global CDR score in participants with mild dementia. CDR Global results are relevant for subject eligibility and thus will also be performed at the Screening visit.
The CDR is obtained through semi-structured interviews of patients and informants, and cognitive functioning is rated in six domains of functioning: memory, orientation, judgement and problem solving, community affairs, home and hobbies, and personal care. Each domain is rated on a five-point scale of functioning as follows: 0, no impairment; 0.5, questionable impairment; 1, mild impairment; 2, moderate impairment; and 3, severe impairment.
The global CDR score is computed via an algorithm. CDR Global score is calculated using the Washington University online algorithm. The CDR-SOB is based on summing each of the domain box scores, with scores ranging from 0-18.
(§5) A Non-interventional Biomarker Analysis Extension Protocol study was conducted for Participants who were previously enrolled in the above described Phase II, Double-Blind, 12-Week, Randomised, Placebo-Controlled Study to Assess the Safety, Tolerability and Efficacy of Xanamem™ in Subjects with Mild Dementia due to Alzheimer's Disease (AD). The objectives for study were: • 1. To analyze the levels of biomarkers of Alzheimer's Disease (AD) proteins, neurodegeneration, and neuro-inflammation in stored plasma samples from participants with mild dementia due to AD enrolled in the previous clinical trial (at baseline and Week 12 and their change from baseline for each treatment) • 2. To examine the change from baseline in biomarkers by treatment group to Week 12 by baseline pTau181 quartile categorization/level • 3. To explore the efficacy of Xanamem in relationship to quartiles categorization/level of pTau181 levels at baseline • 4. To correlate the changes from baseline in biomarkers by treatment with changes in cognitive endpoints
From above described clinical study, the extant blood samples of 72 patients were subjected to further disease biomarker analysis. A biomarker laboratory (blinded to treatment assignment), analyzed those blood samples to determine the biomarker variable pTau181. […]

Data set [3] in a line: Mini-Mental Status Examination (MMSE), Phase II placebo-controlled study, Biomarker Extension Study. The class given is in vivo, human. Here is the method: as §1, §2, §3, §4
The MMSE is a 30-point questionnaire that is used extensively in clinical and research settings to measure cognitive impairment and is commonly used in medicine and allied health to screen for dementia. It is also used to estimate the severity and progression of cognitive impairment and to follow the course of cognitive changes in an individual over time; thus making it an effective way to document a participant's response to treatment. For this study, MMSE results are relevant for subject eligibility and performed at Screening visit.
as §5
(§6) From above described clinical study, the extant blood samples of 72 patients were subjected to further disease biomarker analysis. A biomarker laboratory (blinded to treatment assignment), analyzed those blood samples to determine the biomarker variable pTau181.
An analysis of overall efficacy was undertaken of the population (n=72).
(§7) For the cognitive efficacy variables (CDR-SB and MMSE), change from baseline to Week 12 was analyzed by ANCOVA with the following models: • treatment as fixed effect and baseline cognitive efficacy value as covariate; • treatment, baseline p-Tau181 (low/high) category, and treatment-by-baseline p-Tau181 (low/high) category as fixed effects, and baseline cognitive efficacy value as covariate; • treatment, baseline p-Tau181 (≤10.2 pg/mL/>10.2 pg/mL) category, and treatment-by-baseline p-Tau181 (≤10.2 pg/mL/>10.2 pg/mL) category as fixed effects, and baseline cognitive efficacy value as covariate; and • treatment, baseline MMSE (less severe (≥24)/more severe (≤23)) category, and treatment-by-baseline MMSE (less severe (≥24)/more severe (≤23)) category as fixed effects, and baseline cognitive efficacy value as covariate.

Data set [4] deals with pTau181. Briefly: Biomarker analysis of plasma pTau181, Biomarker Extension Study. The class given is in vivo, human. The following applies: 10 mg QD. The method, then: as §5, §6
as §7, with “biomarker p-Tau181,” for “cognitive efficacy variables (CDR-SB and MMSE),”, “were” for “was”, “biomarker” for “cognitive efficacy”

Data set [5] can be described thus: Pharmacokinetics of Xanamem (Phase I peak concentrations; fed/fasted bioavailability). The class given is in vivo, human. To be noted: oral; with meals vs fasted; in words.
Data set [6] in a line: Safety of drug intake when fasted. To be noted: oral, in words. The class given is in vivo, human.
Setting [7] is: 10 mg QD oral, pTau >6.74 pg/mL subgroup, N = 34.
Where [8] appears, read: 10 mg QD oral, pTau > 10.2 pg/mL, N = 9.
The mark [9] stands for this setting: 10 mg QD oral, pTau ≤ 10.2 pg/mL, N = 59.
The mark [10] stands for this setting: Xanamem vs placebo, pTau>6.74 pg/mL subgroup, 10 mg QD.
The mark [11] stands for this setting: 10 mg QD oral, 12 weeks, baseline MMSE 20-23, N = 46.
[12] abbreviates: 10 mg QD oral, 12 weeks, baseline MMSE 24-26, N = 26.
Where [13] appears, read: baseline to Week 12, sample size 28 and 26.

In the case of `CC12CC3CC(C)(C1)CC(N)(C3)C2` [memantine], the “Cohen's d of approved oral anticholinesterases or memantine” value in data set [1] is 0.2-0.3.

Regarding `O=C(c1csc(-c2cn[nH]c2)c1)N1[C@@H]2CC[C@H]1C[C@](O)(c1ncccn1)C2` [Xanamem, (5-(1H-Pyrazol-4-yl)thiophen-3-yl)(3-hydroxy-3-(pyrimidin-2-yl)-8-azabicyclo[3.2.1]octan-8-yl)methanone], the “CDR-SB change, pTau pg/mL > 10.2 (median)” value in data set [2] (10 mg QD oral, N = 9, desired change down, placebo 0.5) is on record as −0.3. In data set [2] (10 mg QD oral, N = 9, desired change down, placebo 0.8), the “CDR-SB change, pTau pg/mL > 10.2 (mean)” value is 0.1. Moreover, in data set [2] (10 mg QD oral, N = 34, desired change down, placebo 0.0), the “CDR-SB change, pTau units ≤ 6.74 (median)” value came to 0.0. Moreover, in data set [2] (10 mg QD oral, N = 34, desired change down, placebo 0.8), the “CDR-SB change, pTau > 6.74 pg/mL (median)” value came to 0.0. Further, in data set [2] (10 mg QD oral, N = 34, desired change down, placebo 1.0), the “CDR-SB change, pTau > 6.74 pg/mL (mean)” value was determined as 0.4. Further, the “CDR-SB change, pTau units ≤ 6.74 (mean)” value in data set [2] (10 mg QD oral, N = 34, desired change down, placebo −0.1) was 0.5. Further, the “CDR-SB change, pTau ≤ 10.2 pg/mL (median)” value in data set [2] (10 mg QD oral, N = 59, desired change down, placebo 0.0) was determined as 0.0. For the same compound, in data set [2] (10 mg QD oral, N = 59, desired change down, placebo 0.4), the “CDR-SB change, pTau ≤ 10.2 pg/mL (mean)” value is listed as 0.5. The “Cohen's d for CDR-SB (mean), Xanamem vs placebo” value was 0.41 in data set [2] (setting [7]); 0.62 in data set [2] (setting [8]); 0.40 in data set [2] (10 mg QD oral, pTau units ≤ 6.74, N = 34); −0.06 in data set [2] (setting [9]). Besides, the “p value for CDR-SB (mean), Xanamem vs placebo” value worked out at 0.09 in data set [2] (setting [7]); 0.33 in data set [2] (setting [8]); 0.08 in data set [2] (10 mg QD oral, pTau ≤ 6.74 pg/mL, N = 34); 0.78 in data set [2] (setting [9]). Further, the “CDR-SB units (median), change” value in data set [2] (10 mg QD oral, pTau >6.74 pg/mL subgroup, Xanamem n = 16, desired change down, placebo 0.8) amounted to 0.0 CDR-SB units. Also, the “CDR-SB units (mean), change” value in data set [2] (10 mg QD oral, pTau >6.74 pg/mL subgroup, Xanamem n = 16, desired change down, placebo 1.0) was 0.4 CDR-SB units. In data set [2] (setting [10]), the “treatment effect on CDR-SB, mean” value stood at 0.6 points. Further, in data set [2] (setting [10]), the “treatment effect on CDR-SB, median” value is 0.8 points. The “Cohen's d for MMSE (mean), Xanamem vs placebo” value in data set [3] (setting [11]) was 0.93; in data set [3] (setting [12]) it was −0.17. Further, the “p value for MMSE (mean), Xanamem vs placebo” value was determined as 0.02 in data set [3] (setting [11]) and 0.88 in data set [3] (setting [12]). Further, the “MMSE change, MMSE 20-23 (mean)” value in data set [3] (10 mg QD oral, 12 weeks, baseline MMSE 20-23, N = 46, desired change up, placebo −0.3) came out at 1.7. For the same compound, the “MMSE change, MMSE 20-23 (median)” value in data set [3] (10 mg QD oral, 12 weeks, baseline MMSE 20-23, N = 46, desired change up, placebo −1.0) is given as 2.0. In addition, in data set [3] (10 mg QD oral, 12 weeks, baseline MMSE 24-26, N = 26, desired change up, placebo −1.0), the “MMSE change, MMSE 24-26 (median)” value is given as −1.0. The “MMSE change, MMSE 24-26 (mean)” value in data set [3] (10 mg QD oral, 12 weeks, baseline MMSE 24-26, N = 26, desired change up, placebo −1.4) was −1.5. The “Cohen's d for MMSE, Xanamem over placebo” value in data set [3] (overall population n=72, 10 mg QD) came out at 0.35. Moreover, the “increase in the mean MMSE score” value in data set [3] (overall population n=72, Xanamem n=37, 10 mg QD, placebo (n=35) decrease of 0.6) was determined as 0.3. For the same compound, in data set [4] (sample size 28 (Xanamem) and 26 (placebo), placebo −8.59), the “change in biomarker pTau181 from baseline to Week 12” value is recorded as −2.37. In data set [4] (baseline to Week 12, in words), the “treatment trend in change of pTau181” value is on record as “no treatment trend was observed”. Further, in data set [4] (setting [13]), the “Cohen's d for change in pTau181, Xanamem vs placebo” value is 0.08. The “p for change in pTau181, Xanamem vs placebo” value in data set [4] (setting [13]) is 0.40. Moreover, in data set [5], the “bioavailability in fed state” value is listed as “higher bioavailability observed when taken in a fed state”. Further, in data set [6], the “safety of drug intake when fasted” value is reported as “no safety concern”.
